In patent US12703706B2, “Anthelmintic compounds comprising a thienopyridine structure” (Intervet Inc., priority 2020, dated 2026):
pEC50: −log10 of the molar value.

Target: human Maxi K channel (BK channel), KCNMA1 (KCa1.1) and beta1 (KCNMB1) subunits (Homo sapiens, UniProt Q12791)
Sequence (Q12791 1-1178 isoform Q12791-5): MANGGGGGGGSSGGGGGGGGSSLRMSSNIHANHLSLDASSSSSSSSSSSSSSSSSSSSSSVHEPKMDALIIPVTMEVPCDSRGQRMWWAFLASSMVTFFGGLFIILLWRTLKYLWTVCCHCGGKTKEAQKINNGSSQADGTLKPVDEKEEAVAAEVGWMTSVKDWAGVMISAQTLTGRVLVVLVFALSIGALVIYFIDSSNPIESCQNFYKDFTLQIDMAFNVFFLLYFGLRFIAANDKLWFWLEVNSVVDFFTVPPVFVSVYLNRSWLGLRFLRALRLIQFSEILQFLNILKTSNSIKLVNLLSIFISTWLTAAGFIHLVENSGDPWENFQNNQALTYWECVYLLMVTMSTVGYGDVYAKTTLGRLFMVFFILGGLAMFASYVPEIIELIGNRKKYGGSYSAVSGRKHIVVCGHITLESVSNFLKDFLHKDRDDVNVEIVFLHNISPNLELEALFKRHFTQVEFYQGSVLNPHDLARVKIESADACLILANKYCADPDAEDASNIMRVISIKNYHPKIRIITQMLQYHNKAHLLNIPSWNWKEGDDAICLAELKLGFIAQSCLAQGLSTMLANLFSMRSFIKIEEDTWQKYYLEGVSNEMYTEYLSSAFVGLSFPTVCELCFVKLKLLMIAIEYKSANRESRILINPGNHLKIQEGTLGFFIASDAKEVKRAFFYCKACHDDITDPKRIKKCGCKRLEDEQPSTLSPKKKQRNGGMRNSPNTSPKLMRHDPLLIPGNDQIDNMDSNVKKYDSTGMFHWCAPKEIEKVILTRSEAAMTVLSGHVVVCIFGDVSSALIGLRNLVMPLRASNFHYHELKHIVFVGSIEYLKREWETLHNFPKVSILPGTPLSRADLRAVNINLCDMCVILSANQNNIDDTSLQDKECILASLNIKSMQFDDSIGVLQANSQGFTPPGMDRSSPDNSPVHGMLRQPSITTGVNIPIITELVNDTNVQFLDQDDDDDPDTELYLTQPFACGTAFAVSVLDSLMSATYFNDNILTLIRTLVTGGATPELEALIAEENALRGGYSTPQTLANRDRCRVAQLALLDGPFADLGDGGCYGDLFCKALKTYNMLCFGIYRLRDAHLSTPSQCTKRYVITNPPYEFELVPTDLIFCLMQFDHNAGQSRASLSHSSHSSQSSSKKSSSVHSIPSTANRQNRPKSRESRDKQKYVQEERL
Sequence (Q16558 whole entry partner): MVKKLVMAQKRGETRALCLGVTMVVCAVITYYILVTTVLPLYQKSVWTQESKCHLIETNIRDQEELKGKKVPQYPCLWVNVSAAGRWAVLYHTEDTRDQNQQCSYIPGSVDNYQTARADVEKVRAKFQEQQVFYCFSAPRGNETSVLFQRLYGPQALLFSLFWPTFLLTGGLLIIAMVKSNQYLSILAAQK
Protocol: In Vitro Assay: Agonistic Activity at the Human Maxi K Channel (BK Channel)
A CHO K1 cell line was stably transfected with the KCNMA1 (KCa1.1, U11058) and betal (KCNMB1) subunits of the human Maxi K channel (Ponte et al, Molecular Pharmacology 2012, 81(4), 567-577).
Cells were seeded in microtiter plates (black 384-well MTP, clear bottom) in a concentration of 20,000 cells/well in 25 μl medium and cultured for 20 to 24 hours at 37° C. and 5% CO2. After incubation, 25 μl of FMP-dye Blue-Tyrode's was added to each well and incubated at room temperature for 30 min. Ten minutes after addition of 12.5 μl compound solution, the plates are transferred to the FLIPR for measurement.
For the membrane potential measurements, plates were placed in the FLIPR Penta (Molecular Devices). The baseline measurement of the fluorescence was stared for 20 sec (Exc. 510-545 nm, Emm. 565-625 nm). Potential channel opening measurement was started by addition of 25 μl KCl-Tyrode (final assay concentration of the KCl-Tyrode: 70 mM KCl, 2 mM CaCl2, 1 mM MgCl2, 0.8 mM NaH2PO4, 5 mM Glucose, 28 mM Hepes, pH 7.4, including the voltage sensitive dye). The complete measurement takes 150 s.
EC50 values were determined in triplicate utilizing compound dilution series. The data were determined at least in two independent tests. The data were proceeded by using the ActivityBase XE Runner software (IDBS) for curve fitting and calculation of the half-maximal effective concentration.

SMILES	pEC50
CN(CCO)c1c(C(=O)N[C@H]2CCOc3ccccc32)cnc2c(-c3cc(F)cc(F)c3F)csc12 [Compound 95]	< 4.52
O=C(N[C@H]1CCOc2ccccc21)c1cnc2c(-c3cccc(Cl)c3Cl)csc2c1N1CCOCC1 [Compound 4, (S)—N-(chroman-4-yl)-3-(2,3-dichlorophenyl)-7-morpholinothieno[3,2-b]pyridine-6-carboxamide]	5.00 to 5.30
CN(C)c1c(C(=O)N[C@H]2CCOc3ccccc32)cnc2c(-c3cc(F)cc(F)c3)csc12 [Compound 51]	< 4.52
O=C(N[C@H]1CCOc2ccccc21)c1cnc2c(-c3cccc(F)c3F)csc2c1N1CCC1 [Compound 85]	< 4.52
Cc1sc2c(N3CCOCC3)c(C(=O)N[C@H]3CCOc4ccccc43)cnc2c1-c1cccc(OC(F)(F)F)c1 [Compound 109]	< 4.52
Cc1sc2c(N3CCOCC3)c(C(=O)N[C@H]3CCCc4ccccc43)cnc2c1-c1cc(Cl)cc(Cl)c1 [Compound 67]	< 4.52
C[C@H](NC(=O)c1cnc2c(-c3cccc(Cl)c3Cl)csc2c1N(C)C)c1ccccc1 [Compound 11]	< 4.52
O=C(N[C@H]1CCc2ccccc21)c1cnc2c(-c3cc(Cl)cc(Cl)c3)csc2c1N1CCOCC1 [Compound 3]	< 4.52
O=C(N[C@H]1CCOc2ccccc21)c1cnc2c(-c3cc(Cl)cc(Cl)c3)csc2c1N1CCOCC1 [Compound 1]	< 4.52
O=C(N[C@H]1CCc2ccccc21)c1cnc2c(-c3cc(F)cc(F)c3F)csc2c1N1CCOCC1 [Compound 16]	< 4.52
Cc1sc2c(N3CC(F)(F)C3)c(C(=O)N[C@H]3CCOc4ccccc43)cnc2c1-c1cc(Cl)cc(Cl)c1 [Compound 59]	< 4.52
O=C(N[C@H]1CCc2ccccc21)c1cnc2c(-c3cc(Cl)cc(Cl)c3)csc2c1N1CC(F)(F)C1 [Compound 77]	< 4.52
CN(C)c1c(C(=O)N[C@H]2CCc3ccccc32)cnc2c(-c3cccc(Cl)c3Cl)csc12 [Compound 12]	< 4.52
CN1CCN(c2c(C(=O)N[C@H]3CCCc4ccccc43)cnc3c(-c4cc(Cl)cc(Cl)c4)csc23)CC1 [Compound 18]	< 4.52
CN(C)c1c(C(=O)N[C@H]2CCCc3ccccc32)cnc2c(-c3cccc(Cl)c3Cl)csc12 [Compound 21]	< 4.52
O=C(N[C@H]1CCOc2ccccc21)c1cnc2c(-c3cc(F)cc(F)c3)csc2c1N1CCOCC1 [Compound 45]	< 4.52
Cc1sc2c(N3CCOCC3)c(C(=O)N[C@H]3CCOc4ccccc43)cnc2c1-c1cc(F)cc(F)c1 [Compound 107]	< 4.52
O=C(N[C@H]1CCOc2ccccc21)c1cnc2c(-c3cc(F)cc(F)c3F)csc2c1N1CCOCC1 [Compound 15]	< 4.52
Cc1sc2c(N(C)C)c(C(=O)Nc3cccc4ccccc34)cnc2c1-c1cccc(Cl)c1Cl [Compound 37]	< 4.52
O=C(N[C@H]1CCOc2ccccc21)c1cnc2c(-c3cccc(C(F)(F)F)c3)csc2c1N1CCOCC1 [Compound 42]	< 4.52
C[C@H](NC(=O)c1cnc2c(-c3cc(Cl)cc(Cl)c3)csc2c1N1CCOCC1)c1ccccc1 [Compound 2]	< 4.52
O=C(N[C@H]1CCOc2ccccc21)c1cnc2c(-c3cccc(F)c3F)csc2c1N1CCOCC1 [Compound 24]	< 4.52
O=C(N[C@H]1CCc2ccccc21)c1cnc2c(-c3cccc(Cl)c3Cl)csc2c1N1CC(F)(F)C1 [Compound 39]	< 4.52
O=C(NC1CCOc2ccccc21)c1cnc2c(-c3cccc(Cl)c3Cl)csc2c1N1CC(F)(F)C1 (stereo not drawn) [Compound 27]	< 4.52
CN(C)c1c(C(=O)Nc2cccc3ccccc23)cnc2c(-c3cccc(Cl)c3Cl)csc12 [Compound 22]	< 4.52
Cc1sc2c(N3CC(F)(F)C3)c(C(=O)N[C@H]3CCCc4ccccc43)cnc2c1-c1cc(Cl)cc(Cl)c1 [Compound 58]	< 4.52

SMILES	pEC50
O=C(N[C@H]1CCOc2ccccc21)c1cnc2c(-c3cccc(C(F)(F)F)c3)csc2c1N1CCC1 [Compound 90]	< 4.52
Cc1sc2c(N(C)C)c(C(=O)N[C@H]3CCCc4ccccc43)cnc2c1-c1cccc(Cl)c1Cl [Compound 35]	< 4.52
Cc1sc2c(N3CCOCC3)c(C(=O)N[C@H]3CCc4ccccc43)cnc2c1-c1cc(Cl)cc(Cl)c1 [Compound 69]	< 4.52
Cc1sc2c(N3CCOCC3)c(C(=O)N[C@H]3CCOc4ccccc43)cnc2c1-c1cc(F)cc(F)c1F [Compound 106]	< 4.52
O=C(N[C@H]1CCOc2ccccc21)c1cnc2c(-c3cc(F)cc(F)c3)csc2c1N1CCC1 [Compound 83]	< 4.52
O=C(N[C@H]1CCc2ccccc21)c1cnc2c(-c3cccc(Cl)c3Cl)csc2c1N1CC(F)C1 [Compound 99]	< 4.52
O=C(N[C@H]1CCOc2ccccc21)c1cnc2c(-c3cc(F)cc(F)c3F)csc2c1NC1CC1 [Compound 88]	< 4.52
CN(C)c1c(C(=O)NC2CCOc3ccccc32)cnc2c(-c3cccc(Cl)c3Cl)csc12 (stereo not drawn) [Compound 28]	< 4.52
Cc1sc2c(N3CC(F)(F)C3)c(C(=O)N[C@H]3CCc4ccccc43)cnc2c1-c1cc(Cl)cc(Cl)c1 [Compound 60]	< 4.52
Cc1sc2c(N3CCOCC3)c(C(=O)N[C@H]3CCc4ccccc43)cnc2c1-c1cccc(OC(F)(F)F)c1 [Compound 113]	< 4.52
O=C1CCN(c2c(C(=O)N[C@H]3CCOc4ccccc43)cnc3c(-c4cc(Cl)cc(Cl)c4)csc23)CC1 [Compound 52]	< 4.52
O=C(N[C@H]1CCc2ccccc21)c1cnc2c(-c3cccc(Cl)c3Cl)csc2c1N1CCOCC1 [Compound 6]	5.00 to 5.30
O=C(N[C@H]1CCOc2ccccc21)c1cnc2c(-c3cccc(C(F)(F)F)c3)csc2c1N1CC(F)C1 [Compound 93]	< 4.52
O=C(N[C@H]1CCOc2ccccc21)c1cnc2c(-c3cc(F)cc(F)c3F)csc2c1N1CCC1 [Compound 84]	< 4.52
Cc1sc2c(N(C)C)c(C(=O)N[C@H]3CCOc4ccccc43)cnc2c1-c1cccc(C(F)(F)F)c1 [Compound 104]	< 4.52
C[C@H](NC(=O)c1cnc2c(-c3cc(Cl)cc(Cl)c3)csc2c1N(C)C)c1ccccc1 [Compound 8]	< 4.52
Cc1sc2c(N3CC(F)C3)c(C(=O)N[C@H]3CCc4ccccc43)cnc2c1-c1cccc(Cl)c1Cl [Compound 63]	< 4.52
Cc1sc2c(N3CCOCC3)c(C(=O)N[C@H]3CCc4ccccc43)cnc2c1-c1cc(F)cc(F)c1 [Compound 111]	< 4.52
Cc1sc2c(N3CCOCC3)c(C(=O)N[C@H]3CCCc4ccccc43)cnc2c1-c1cccc(Cl)c1Cl [Compound 71]	< 4.52
Cc1sc2c(N3CC(F)C3)c(C(=O)N[C@H]3CCCc4ccccc43)cnc2c1-c1cccc(Cl)c1Cl [Compound 61]	< 4.52
O=C(N[C@H]1CCOc2ccccc21)c1cnc2c(-c3cc(Cl)cc(Cl)c3)csc2c1N1CC(F)(F)C1 [Compound 76]	< 4.52
O=C(NC1COc2ccccc21)c1cnc2c(-c3cccc(Cl)c3Cl)csc2c1N1CCOCC1 (stereo not drawn) [Compound 79]	< 4.52
Cc1sc2c(N3CC(F)C3)c(C(=O)N[C@H]3CCc4ccccc43)cnc2c1-c1cc(Cl)cc(Cl)c1 [Compound 66]	< 4.52
COCCNc1c(C(=O)N[C@H]2CCOc3ccccc32)cnc2c(-c3cc(F)cc(F)c3F)csc12 [Compound 82]	< 4.52
O=C(N[C@H]1CCOc2ccccc21)c1cnc2c(-c3cccc(F)c3F)csc2c1N1CC(F)C1 [Compound 91]	< 4.52
